Source: US8362008B2 (The University Of Edinburgh, priority 2007, dated 2013)

The compounds below were run against T1, human 11β-HSD1 enzyme (Homo sapiens, UniProt P28845) (assay: Cellular in vitro 11β-HSD1 enzyme inhibition assay (SPA, HEK293/11β-HSD1 cells)). Conditions: HEK293, less than or equal to 1000 nM (1 μM).
T1 construct: stably transfected with a construct containing the full-length gene coding for the human 11β-HSD1 enzyme; expressed in transfected cells; host or cells: HEK293 (HEK293/11β-HSD1 cells)
T1 sequence (P28845 whole entry): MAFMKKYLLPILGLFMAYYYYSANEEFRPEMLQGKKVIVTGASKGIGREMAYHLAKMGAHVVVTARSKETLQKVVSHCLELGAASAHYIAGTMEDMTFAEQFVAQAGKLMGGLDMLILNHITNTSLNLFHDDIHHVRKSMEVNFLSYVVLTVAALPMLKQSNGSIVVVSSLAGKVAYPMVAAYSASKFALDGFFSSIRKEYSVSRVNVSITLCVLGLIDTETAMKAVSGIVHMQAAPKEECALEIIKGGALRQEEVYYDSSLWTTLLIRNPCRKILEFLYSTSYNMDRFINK
Assay type: cell-based
Description: Cellular In Vitro 11β-HSD1 Enzyme Inhibition Assay
Compounds were assessed by a Scintillation Proximity Assay (SPA) performed according to the following protocol:
HEK293 cells were stably transfected with a construct containing the full-length gene coding for the human 11β-HSD1 enzyme to create HEK293/11β-HSD1 cells. Cells were routinely cultured in DMEM containing 10% calf foetal serum, 1% glutamine, and 1% penicillin and streptomycin. Prior to assay, cells were plated at 2×10^4 cells/well in 96-well poly-D-Lys coated flat-bottomed microplates and incubated in 5% CO2, 95% O2 at 37° C. for 24 hours. The media in each well was removed immediately before assay.
Compounds to be tested were dissolved in DMSO at 10 mM and serially diluted into water containing 10% DMSO. Diluted compounds at a volume of 10 μL were added to wells of a 96-well V-bottomed microplate. […] This solution (100 μL/well) was transferred to the plate containing the cells. The plate was then incubated in 5% CO2, 95% O2 at 37° C. for 2 hours.
Following this incubation, 50 μL of the assay solution was transferred to each well of a 96-well scintillation microplate. A mixture consisting of anti-mouse YSi SPA beads, pre-mixed with anti-cortisol antibody in assay buffer (50 mM Tris.HCl, pH 7.0; 300 mM NaCl; 1 mM EDTA, 5% glycerol) was prepared and 50 μL added to each well of the scintillation microplate. An adhesive strip was applied to the microplate and the plate gently shaken for at least 2 hours at room temperature, and then spun briefly on a low speed centrifuge. The plate was read on a scintillation counter suitable for 96-well microplates. For the calculation of percentage inhibition, a series of wells were added to the plate that represented the assay maximum and the assay minimum: one set that contained substrate without cells (mimimum) and another set that contained substrate and cells without any compound (maximum).
The calculation of median inhibitory concentration (IC50) values for the compounds was performed using GraphPad Prism® software. Dose-response curves for each compound were plotted as fractional inhibition and data fitted to the four parameter logistic equation.
Compound `CC1(C)CC2CC(C)(CN2C(=O)c2cc(C3CCOCC3)sc2Cl)C1` (centres unmarked) [CC-070] has an IC50 of at most 1 µM.
With `CC1(C)CC2CC(C)(CN2C(=O)c2csc(C3CCNCC3)c2)C1` (centres unmarked) [CC-072] the IC50 was at most 1 µM.
For `CC1(C)CC2CC(C)(CN2C(=O)c2csc(C3CCCNC3)c2)C1` (centres unmarked) [CC-073], the IC50 was at most 1 µM.
With `CC1(C)CC2CC(C)(CN2C(=O)c2csc(C3=CCNCC3)c2)C1` (centres unmarked) [CC-074] the IC50 was at most 1 µM.
`O=C(c1csc(C2CCOCC2)c1)N1CCCC2(CCCCC2)C1` [CC-077] gave an IC50 of at most 1 µM.
For `CC(C)C(=O)N1CCC(c2cc(C(=O)N3CCCC4CCCCC43)cs2)CC1` (centres unmarked) [CC-081], the IC50 was at most 1 µM.
In the case of `COCC(=O)N1CCC(c2cc(C(=O)N3CCCC4CCCCC43)cs2)CC1` (centres unmarked) [CC-083], the IC50 is reported as at most 1 µM.
`Cn1cncc1C(=O)N1CCC(c2cc(C(=O)N3CCCC4CCCCC43)cs2)CC1` (centres unmarked) [CC-084] gave an IC50 of at most 1 µM.
`CC(=O)N1CC=C(c2cc(C(=O)N3CCCC4CCCCC43)cs2)CC1` (centres unmarked) [CC-086] gave an IC50 of at most 1 µM.
`O=C(CO)N1CC=C(c2cc(C(=O)N3CCCC4CCCCC43)cs2)CC1` (centres unmarked) [CC-090] gave an IC50 of at most 1 µM.
In the case of `CS(=O)(=O)NCCC(=O)N1CC=C(c2cc(C(=O)N3CCCC4CCCCC43)cs2)CC1` (centres unmarked) [CC-091], the IC50 is reported as at most 1 µM.
`CC1(C)CCCN(C(=O)c2csc(C3CCN(C(=O)CCNS(C)(=O)=O)CC3)c2)CC1` [CC-097] showed an IC50 of at most 1 µM.
`O=C(C1CC1)N1CCC(c2cc(C(=O)N3CCCC4CCCCC43)cs2)CC1` (centres unmarked) [CC-099] showed an IC50 of at most 1 µM.
`O=C(c1cccnc1)N1CCC(c2cc(C(=O)N3CCCC4CCCCC43)cs2)CC1` (centres unmarked) [CC-103] showed an IC50 of at most 1 µM.
In the case of `NC(=O)CN1CCC(c2cc(C(=O)N3CCCC4CCCCC43)cs2)CC1` (centres unmarked) [CC-108], the IC50 is reported as at most 1 µM.
`CC1(C)CCCN(C(=O)c2csc(C3CCN(C(=O)CO)CC3)c2)CC1` [CC-113] showed an IC50 of at most 1 µM.
`O=C(N1CCCC1)N1CCC(c2cc(C(=O)N3CCCC4CCCCC43)cs2)CC1` (centres unmarked) [CC-116] showed an IC50 of at most 1 µM.
Compound `O=C(c1csc(C2=CCNCC2)c1)N1CCCCC1c1ccccc1` (centres unmarked) [CC-123] has an IC50 of at most 1 µM.
`O=C(c1csc(C2=CCNCC2)c1)N1CCCC(F)(F)CC1` [CC-126] gave an IC50 of at most 1 µM.
In the case of `CNC(=O)N1CCC(c2cc(C(=O)N3CCCCC3c3ccccc3)cs2)CC1` (centres unmarked) [CC-132], the IC50 is reported as at most 1 µM.
`O=C(Cc1ccccn1)N1CCC(c2cc(C(=O)N3CCCC4CCCCC43)cs2)CC1` (centres unmarked) [CC-133] showed an IC50 of at most 1 µM.
With `O=C(Cc1cccnc1)N1CCC(c2cc(C(=O)N3CCCC4CCCCC43)cs2)CC1` (centres unmarked) [CC-134] the IC50 was at most 1 µM.
For `O=C(c1csc(C2CCSCC2)c1)N1CCCC2CCCCC21` (centres unmarked) [CC-136], the IC50 was at most 1 µM.
For `CC1(C)CCCN(C(=O)c2csc(C3CCN(C(C)(C)C(N)=O)CC3)c2)CC1` [CC-137], the IC50 was at most 1 µM.
`NC(=O)N1CCC(c2cc(C(=O)N3CCCC4CCCCC43)cs2)CC1` (centres unmarked) [CC-144] was tested, and the IC50 was at most 1 µM.
`CS(=O)(=O)NCC(=O)N1CCC(c2cc(C(=O)N3CCCC4CCCCC43)cs2)CC1` (centres unmarked) [CC-148] showed an IC50 of at most 1 µM.
Compound `O=C(CCc1ccncc1)N1CCC(c2cc(C(=O)N3CCCC4CCCCC43)cs2)CC1` (centres unmarked) [CC-149] has an IC50 of at most 1 µM.
`O=C(CCc1c[nH]cn1)N1CCC(c2cc(C(=O)N3CCCC4CCCCC43)cs2)CC1` (centres unmarked) [CC-151] gave an IC50 of at most 1 µM.
`Cn1ccnc1CN1CCC(c2cc(C(=O)N3CCCC4CCCCC43)cs2)CC1` (centres unmarked) [CC-154] was tested, and the IC50 was at most 1 µM.
Work on `O=C(NCCCO)N1CCC(c2cc(C(=O)N3CCCC4CCCCC43)cs2)CC1` (centres unmarked) [CC-161] yielded an IC50 of at most 1 µM.
Compound `COCCNC(=O)N1CCC(c2cc(C(=O)N3CCCC4CCCCC43)cs2)CC1` (centres unmarked) [CC-164] has an IC50 of at most 1 µM.
For `O=C(NCc1ccccn1)N1CCC(c2cc(C(=O)N3CCCC4CCCCC43)cs2)CC1` (centres unmarked) [CC-166], the IC50 was at most 1 µM.

Same assay, conditions: HEK293, more than 1000 nM (1.0 μM) and less than or equal to 30 μM
`CC1(C)CC2CC(C)(CN2C(=O)c2csc(C3CCN(C(=O)OCc4ccccc4)CC3)c2)C1` (centres unmarked) [CC-071] gave an IC50 of 1 to 30 µM.
Compound `O=C(OCc1ccccc1)N1CCC(c2cc(C(=O)N3CCCC4(CCCCC4)C3)cs2)CC1` [CC-078] has an IC50 of 1 to 30 µM.
`O=C(c1csc(C2CCNCC2)c1)N1CCCC2(CCCCC2)C1` [CC-079] gave an IC50 of 1 to 30 µM.
Compound `O=C(c1csc(C2CCCNC2)c1)N1CCCC2(CCCCC2)C1` (centres unmarked) [CC-080] has an IC50 of 1 to 30 µM.
Work on `O=C(CCCN1CCCCC1)N1CCC(c2cc(C(=O)N3CCCC4CCCCC43)cs2)CC1` (centres unmarked) [CC-082] yielded an IC50 of 1 to 30 µM.
`COCCCC(=O)N1CCC(c2cc(C(=O)N3CCCC4CCCCC43)cs2)CC1` (centres unmarked) [CC-085] showed an IC50 of 1 to 30 µM.
In the case of `O=C(c1csc(C2CCN(CCS(=O)(=O)N3CCCC3)CC2)c1)N1CCCC2CCCCC21` (centres unmarked) [CC-087], the IC50 is reported as 1 to 30 µM.
With `COCCCN1CCC(c2cc(C(=O)N3CCCC4CCCCC43)cs2)CC1` (centres unmarked) [CC-089] the IC50 was 1 to 30 µM.
Work on `O=C(c1csc(C2CCN(S(=O)(=O)c3ccccc3)CC2)c1)N1CCCC2CCCCC21` (centres unmarked) [CC-092] yielded an IC50 of 1 to 30 µM.
Work on `O=C(c1csc(C2CCN(S(=O)(=O)C3CC3)CC2)c1)N1CCCC2CCCCC21` (centres unmarked) [CC-093] yielded an IC50 of 1 to 30 µM.
`COC(=O)N1CCC(c2cc(C(=O)N3CCCC(C)(C)CC3)cs2)CC1` [CC-094] was tested, and the IC50 was 1 to 30 µM.
`CC1(C)CCCN(C(=O)c2csc(C3CCN(C(=O)c4ccno4)CC3)c2)CC1` [CC-095] gave an IC50 of 1 to 30 µM.
Work on `CC1(C)CCCN(C(=O)c2csc(C3CCN(S(C)(=O)=O)CC3)c2)CC1` [CC-096] yielded an IC50 of 1 to 30 µM.
`CC(=O)N1CCC(c2cc(C(=O)N3CCCCC3c3ccccc3)cs2)CC1` (centres unmarked) [CC-098] was tested, and the IC50 was 1 to 30 µM.
`CC(C)(C)C(=O)N1CCC(c2cc(C(=O)N3CCCC4CCCCC43)cs2)CC1` (centres unmarked) [CC-100] gave an IC50 of 1 to 30 µM.
For `O=C(CO)N1CCC(c2cc(C(=O)N3CCCCC3c3ccccc3)cs2)CC1` (centres unmarked) [CC-102], the IC50 was 1 to 30 µM.
Compound `CC(C)S(=O)(=O)N1CCC(c2cc(C(=O)N3CCCC4CCCCC43)cs2)CC1` (centres unmarked) [CC-104] has an IC50 of 1 to 30 µM.
`CC(C)CS(=O)(=O)N1CCC(c2cc(C(=O)N3CCCC4CCCCC43)cs2)CC1` (centres unmarked) [CC-105] gave an IC50 of 1 to 30 µM.
Compound `O=C(c1csc(C2CCNCC2)c1)N1CCCCCC1c1ccccc1` (centres unmarked) [CC-107] has an IC50 of 1 to 30 µM.
`Cc1cc(C(=O)N2CCC(c3cc(C(=O)N4CCCC5CCCCC54)cs3)CC2)no1` (centres unmarked) [CC-109] gave an IC50 of 1 to 30 µM.
Compound `O=C(c1ccccc1)N1CCC(c2cc(C(=O)N3CCCC4CCCCC43)cs2)CC1` (centres unmarked) [CC-110] has an IC50 of 1 to 30 µM.
Work on `O=C(c1csc(C2CCNCC2)c1)N1CCCCC1c1ccc(F)cc1` (centres unmarked) [CC-112] yielded an IC50 of 1 to 30 µM.
Work on `O=C(CCn1ccnc1)N1CCC(c2cc(C(=O)N3CCCC4CCCCC43)cs2)CC1` (centres unmarked) [CC-117] yielded an IC50 of 1 to 30 µM.
Work on `O=C(c1csc(C2CCN(c3ccccn3)CC2)c1)N1CCCC2CCCCC21` (centres unmarked) [CC-120] yielded an IC50 of 1 to 30 µM.
Compound `CC1(C)CCCN(C(=O)c2csc(C3=CCNCC3)c2)CC1` [CC-124] has an IC50 of 1 to 30 µM.
With `CC1(C)CCCCN(C(=O)c2csc(C3=CCNCC3)c2)C1` [CC-125] the IC50 was 1 to 30 µM.
Compound `CS(=O)(=O)NCCC(=O)N1CCC(c2cc(C(=O)N3CCCCC3c3ccccc3)cs2)CC1` (centres unmarked) [CC-128] has an IC50 of 1 to 30 µM.
`O=C(c1csc(C2CCN(c3nc4ccccc4o3)CC2)c1)N1CCCC2CCCCC21` (centres unmarked) [CC-129] was tested, and the IC50 was 1 to 30 µM.
`O=C(c1csc(C2CCNCC2)c1)N1CCC(F)(F)C2CCCCC21` (centres unmarked) [CC-131] was tested, and the IC50 was 1 to 30 µM.
In the case of `CC1(C)CCCN(C(=O)c2csc(C3CCN(CC(N)=O)CC3)c2)CC1` [CC-139], the IC50 is reported as 1 to 30 µM.
`O=C(c1csc(C2CCN(CC(O)CO)CC2)c1)N1CCCC2CCCCC21` (centres unmarked) [CC-153] showed an IC50 of 1 to 30 µM.
Work on `O=C1CCCN1CCCN1CCC(c2cc(C(=O)N3CCCC4CCCCC43)cs2)CC1` (stereo not drawn) [CC-156, cis-{1-(3-{4-[4-(Octahydro-quinoline-1-carbonyl)-thiophen-2-yl]-piperidin-1-yl}-propyl)-pyrrolidin-2-one] yielded an IC50 of 1 to 30 µM.
With `CN(C)CCNC(=O)N1CCC(c2cc(C(=O)N3CCCC4CCCCC43)cs2)CC1` (centres unmarked) [CC-162] the IC50 was 1 to 30 µM.
